Measurements taken from patent US20250043353A1, “BIOMARKERS OF RESPONSE TO SELECTIVE INHIBITORS OF AURORA A KINASE” (Millennium Pharmaceuticals, Inc., priority 2015, published 2025).

How the values were obtained:
[1] = system: advanced solid tumor types; assay: association of somatically mutated genes/pathways (whole exome sequencing) with response to alisertib in trial patients; format: in vivo, human; conditions: for est: HR (hazard ratio) for progression free survival (PFS): adjusted by baseline, stratified by indication; for est: mean % best tumor size change between mutant and WT groups: all five tumor types, adjusted by tumor indication and tumor baseline size
Excerpt: The best tumor size change and progression-free survival (PFS) of the patients were used as the efficacy response endpoints.
The genomic DNA was isolated from 47 patients with 2-4 slides of 5 micron thickness from archived tumor biopsies with Qiagen FFPE kit (Qiagen, Germany). Genomic DNA from blood samples were extracted utilizing blood DNA kit (Qiagen, Germany). Tumor-normal (blood) paired DNAs were sequenced by whole exome DNA sequencing employing Agilent SureSelect exome capture and Illumina Hi-Seq™ technologies.
The downstream analysis was designed to identify potential biomarkers predictive of drug response using the high-confidence mutations obtained from the middle-stream analysis. A linear regression model and Cox proportional hazard model were used for best tumor size change and PFS as endpoints, respectively. Tumor type was considered as a covariate in both models to adjust its confounding effect. In case of linear regression for best tumor size change as an endpoint, baseline tumor size was added as an additional covariate since baseline tumor size is […] correlated with the endpoint. In the following linear regression equation, y=β0+β1x+βc1c1+βc2c2+ε, y, x, c1, c2, and c represent the best tumor size change, a single gene mutation status, tumor type, baseline tumor size, and random error, respectively. When the gene harbors high-confidence mutation(s), x becomes 1; otherwise, it is 0. The 1st covariate c1 was converted into five binary variables to represent the five different tumor types and the 2nd covariate c2 is a continuous variable. As a result, the coefficient fi indicates the contribution of the mutated gene to sensitivity or resistance to alisertib treatment after adjusting the potential confounding effects of the covariates. A p-value was computed for testing the null hypothesis β1=0. Since multiple genes were tested using these models and the p-values were corrected for multiple hypothesis testing using false discovery rate (FDR).
A similar approach was used for the pathway association analysis. A pathway can be defined as a group of genes that are known to be interacting together for a common biological function. […] Two types of statistical tests were selected in order to test the degree of association of mutations on the pathway level and alisertib treatment outcome, particularly best tumor size change. […] A linear regression model was built using this binary variable as an independent variable and tumor type and baseline tumor size were used as covariates, similar to the equation used for gene-level association. Secondly, sequence kernel association tests (SKAT) were run to account for cases where individual mutated genes in a pathway contribute differently to drug sensitivity or resistance. […] As the two methods, linear regression and SKAT, provide different angles in terms of association between pathways and alisertib response, the smaller p-value (the best of the two tests, BOT from here on) was selected as a representative p-value for each pathway. The p-values of the pathways were subjected to multiplicity adjustments in order to control the type I error of the statistical tests.
The Cox proportional hazard models were used to see potential association between mutated genes/pathways and progression-free survival (PFS).
For single gene-level association, the Benjamini & Hochberg (BH) method was used to compute FDR (also known as q-value). For pathway-level association, as multiple statistical association analyses (linear regression, SKAT and BOT) were conducted for each pathway, and pathways are often correlated through commonly present genes, multiplicity adjustment becomes more complicated. To address these challenges, a re-sampling-based multiplicity adjustment was implemented. The null distributions of p-values from pathway association tests were simulated using parametric bootstrapping. […]

[2] = system: advanced solid tumor types; conditions: patients with relapsed/refractory BC, SCLC, NSCLC, HNSCC, GE adenocarcinoma; activity in all except NSCLC; cited from earlier work

SMILES: COc1cc(Nc2ncc3c(n2)-c2ccc(Cl)cc2C(c2c(F)cccc2OC)=NC3)ccc1C(=O)O [alisertib, 4-{[9-chloro-7-(2-fluoro-6-methoxyphenyl)-5H-pyrimido[5,4-d][2]benzazepin-2-yl]amino}-2-methoxybenzoic acid]
- est: HR (hazard ratio) for progression free survival (PFS) ([1]; EP300 mutated vs WT): 0.271
- est: mean % best tumor size change between mutant and WT groups ([1]; FAT1 mutated): −39.70%
- est: mean % best tumor size change between mutant and WT groups ([1]; FBXW7 mutated): 41.96%
- est: HR (hazard ratio) for progression free survival (PFS) ([1]; MLL3 mutated vs WT): 0.129
- est: mean % best tumor size change between mutant and WT groups ([1]; MLL3 mutated): −28.84%
- response (best tumor size change) of patients with mutated pathway versus wild type ([1]; patients with mutated WNT or Hippo signaling pathways vs WT): respond more favorably
- single agent antitumor activity [2]: clinically meaningful antitumor activity in four of the five solid tumor types
